Data taken from the kinase profiling compilation of Christmann-Franck et al. (2016).

How the values were obtained:
Assay in all cases: radiometric filter-binding kinase assay, Kinase HotSpot
Details in all cases: compound 0.5 µM; ATP 10 µM
SIK2 (human) = SIK2 (human) (UniProt Q9H0K1)
STK17A (human) = STK17A (human) (UniProt Q9UEE5)
ROCK2 (human) = ROCK2 (human) (UniProt O75116)
TSSK2 (human) = TSSK2 (human) (UniProt Q96PF2)
CDK4 CCND1 (human) = CDK4 CCND1 (human) (UniProt P24385+P11802)
DYRK1B (human) = DYRK1B (human) (UniProt Q9Y463)
DYRK1B (human), sequence (Q9Y463 whole entry, looked up): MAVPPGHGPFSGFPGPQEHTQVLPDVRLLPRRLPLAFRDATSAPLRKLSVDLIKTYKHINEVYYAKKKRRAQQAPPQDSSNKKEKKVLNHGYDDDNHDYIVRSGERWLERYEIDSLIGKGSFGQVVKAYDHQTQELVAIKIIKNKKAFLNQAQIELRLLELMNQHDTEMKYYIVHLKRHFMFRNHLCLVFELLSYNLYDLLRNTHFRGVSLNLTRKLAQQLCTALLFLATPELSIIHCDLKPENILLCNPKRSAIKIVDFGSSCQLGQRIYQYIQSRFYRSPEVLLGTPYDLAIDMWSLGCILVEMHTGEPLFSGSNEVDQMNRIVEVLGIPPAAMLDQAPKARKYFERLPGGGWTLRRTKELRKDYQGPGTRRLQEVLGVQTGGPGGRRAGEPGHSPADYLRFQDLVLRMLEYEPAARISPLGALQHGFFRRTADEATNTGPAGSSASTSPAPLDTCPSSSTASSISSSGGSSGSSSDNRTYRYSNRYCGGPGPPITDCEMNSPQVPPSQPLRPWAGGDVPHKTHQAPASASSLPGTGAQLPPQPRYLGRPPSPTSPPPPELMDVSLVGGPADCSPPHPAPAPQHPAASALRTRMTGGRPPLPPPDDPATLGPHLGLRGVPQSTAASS

CSNK1G3 (human) = CSNK1G3 (human) (UniProt Q9Y6M4)
CSNK1G3 (human), sequence (Q9Y6M4 whole entry, looked up): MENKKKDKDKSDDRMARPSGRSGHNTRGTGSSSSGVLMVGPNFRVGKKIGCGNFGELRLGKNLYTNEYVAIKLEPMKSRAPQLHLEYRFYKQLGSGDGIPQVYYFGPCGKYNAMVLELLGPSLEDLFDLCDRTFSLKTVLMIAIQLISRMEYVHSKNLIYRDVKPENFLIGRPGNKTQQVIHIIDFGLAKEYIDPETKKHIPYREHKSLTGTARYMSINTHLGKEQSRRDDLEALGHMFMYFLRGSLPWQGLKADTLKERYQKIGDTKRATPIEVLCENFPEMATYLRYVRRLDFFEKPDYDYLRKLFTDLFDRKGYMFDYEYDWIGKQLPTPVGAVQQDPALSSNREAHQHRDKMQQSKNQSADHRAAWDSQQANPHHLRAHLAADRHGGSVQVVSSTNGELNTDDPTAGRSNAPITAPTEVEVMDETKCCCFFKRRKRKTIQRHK

IRAK1 (human) = IRAK1 (human) (UniProt P51617)
PRKCH (human) = PRKCH (human) (UniProt P24723)
MAPK10 (human) = MAPK10 (human) (UniProt P53779)
DYRK4 (human) = DYRK4 (human) (UniProt Q9NR20)
IKBKB (human) = IKBKB (human) (UniProt O14920)
TBK1 (human) = TBK1 (human) (UniProt Q9UHD2)
PAK4 (human) = PAK4 (human) (UniProt O96013)
CSNK1A1 (human) = CSNK1A1 (human) (UniProt P48729)
ROS1 (human) = ROS1 (human) (UniProt P08922)
STK39 (human) = STK39 (human) (UniProt Q9UEW8)
MAPK11 (human) = MAPK11 (human) (UniProt Q15759)
PRKD2 (human) = PRKD2 (human) (UniProt Q9BZL6)
PRKD2 (human), sequence (Q9BZL6 whole entry, looked up): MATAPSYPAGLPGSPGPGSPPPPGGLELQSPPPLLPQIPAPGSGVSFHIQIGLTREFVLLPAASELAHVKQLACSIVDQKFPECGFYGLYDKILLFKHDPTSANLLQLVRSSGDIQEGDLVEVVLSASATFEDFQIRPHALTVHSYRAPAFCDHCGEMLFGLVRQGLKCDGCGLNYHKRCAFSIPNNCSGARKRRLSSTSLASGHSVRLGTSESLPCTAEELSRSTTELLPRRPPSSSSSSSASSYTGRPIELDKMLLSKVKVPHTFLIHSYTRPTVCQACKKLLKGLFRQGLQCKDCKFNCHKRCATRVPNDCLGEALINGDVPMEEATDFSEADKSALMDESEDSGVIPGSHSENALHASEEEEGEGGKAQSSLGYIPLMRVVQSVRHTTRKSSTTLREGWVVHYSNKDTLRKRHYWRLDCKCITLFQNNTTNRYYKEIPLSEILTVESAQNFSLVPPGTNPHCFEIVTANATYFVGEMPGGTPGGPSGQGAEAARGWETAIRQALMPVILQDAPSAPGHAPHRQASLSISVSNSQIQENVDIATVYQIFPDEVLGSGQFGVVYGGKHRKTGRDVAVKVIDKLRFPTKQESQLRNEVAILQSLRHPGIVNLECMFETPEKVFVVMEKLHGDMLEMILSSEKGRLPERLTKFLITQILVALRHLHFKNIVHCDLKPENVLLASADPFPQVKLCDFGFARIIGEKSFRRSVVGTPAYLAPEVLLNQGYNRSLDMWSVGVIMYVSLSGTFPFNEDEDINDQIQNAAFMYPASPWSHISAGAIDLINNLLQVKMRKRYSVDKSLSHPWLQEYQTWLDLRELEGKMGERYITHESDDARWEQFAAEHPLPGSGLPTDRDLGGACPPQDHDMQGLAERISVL

CAMK2D (human) = CAMK2D (human) (UniProt Q13557)
CHEK1 (human) = CHEK1 (human) (UniProt O14757)
NUAK1 (human) = NUAK1 (human) (UniProt O60285)
NUAK1 (human), sequence (O60285 whole entry, looked up): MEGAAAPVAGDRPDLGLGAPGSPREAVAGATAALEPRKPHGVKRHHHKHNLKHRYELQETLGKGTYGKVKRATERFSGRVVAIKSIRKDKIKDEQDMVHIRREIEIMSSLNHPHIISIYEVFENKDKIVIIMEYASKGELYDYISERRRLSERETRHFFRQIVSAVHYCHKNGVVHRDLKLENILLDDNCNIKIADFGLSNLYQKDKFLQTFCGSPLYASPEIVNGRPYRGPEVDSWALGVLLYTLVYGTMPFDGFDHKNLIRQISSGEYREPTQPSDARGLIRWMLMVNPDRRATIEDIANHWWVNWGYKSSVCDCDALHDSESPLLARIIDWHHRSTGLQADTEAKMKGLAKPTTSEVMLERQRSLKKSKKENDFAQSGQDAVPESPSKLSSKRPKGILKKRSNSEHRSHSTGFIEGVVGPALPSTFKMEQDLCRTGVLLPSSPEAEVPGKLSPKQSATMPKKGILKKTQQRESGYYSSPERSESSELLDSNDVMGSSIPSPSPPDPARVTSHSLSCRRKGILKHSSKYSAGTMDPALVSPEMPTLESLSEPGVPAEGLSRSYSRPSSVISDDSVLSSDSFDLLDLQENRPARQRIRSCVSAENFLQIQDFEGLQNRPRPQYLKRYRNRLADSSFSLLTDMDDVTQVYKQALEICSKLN

ABL2 (human) = ABL2 (human) (UniProt P42684)
ABL2 (human), sequence (P42684 whole entry, looked up): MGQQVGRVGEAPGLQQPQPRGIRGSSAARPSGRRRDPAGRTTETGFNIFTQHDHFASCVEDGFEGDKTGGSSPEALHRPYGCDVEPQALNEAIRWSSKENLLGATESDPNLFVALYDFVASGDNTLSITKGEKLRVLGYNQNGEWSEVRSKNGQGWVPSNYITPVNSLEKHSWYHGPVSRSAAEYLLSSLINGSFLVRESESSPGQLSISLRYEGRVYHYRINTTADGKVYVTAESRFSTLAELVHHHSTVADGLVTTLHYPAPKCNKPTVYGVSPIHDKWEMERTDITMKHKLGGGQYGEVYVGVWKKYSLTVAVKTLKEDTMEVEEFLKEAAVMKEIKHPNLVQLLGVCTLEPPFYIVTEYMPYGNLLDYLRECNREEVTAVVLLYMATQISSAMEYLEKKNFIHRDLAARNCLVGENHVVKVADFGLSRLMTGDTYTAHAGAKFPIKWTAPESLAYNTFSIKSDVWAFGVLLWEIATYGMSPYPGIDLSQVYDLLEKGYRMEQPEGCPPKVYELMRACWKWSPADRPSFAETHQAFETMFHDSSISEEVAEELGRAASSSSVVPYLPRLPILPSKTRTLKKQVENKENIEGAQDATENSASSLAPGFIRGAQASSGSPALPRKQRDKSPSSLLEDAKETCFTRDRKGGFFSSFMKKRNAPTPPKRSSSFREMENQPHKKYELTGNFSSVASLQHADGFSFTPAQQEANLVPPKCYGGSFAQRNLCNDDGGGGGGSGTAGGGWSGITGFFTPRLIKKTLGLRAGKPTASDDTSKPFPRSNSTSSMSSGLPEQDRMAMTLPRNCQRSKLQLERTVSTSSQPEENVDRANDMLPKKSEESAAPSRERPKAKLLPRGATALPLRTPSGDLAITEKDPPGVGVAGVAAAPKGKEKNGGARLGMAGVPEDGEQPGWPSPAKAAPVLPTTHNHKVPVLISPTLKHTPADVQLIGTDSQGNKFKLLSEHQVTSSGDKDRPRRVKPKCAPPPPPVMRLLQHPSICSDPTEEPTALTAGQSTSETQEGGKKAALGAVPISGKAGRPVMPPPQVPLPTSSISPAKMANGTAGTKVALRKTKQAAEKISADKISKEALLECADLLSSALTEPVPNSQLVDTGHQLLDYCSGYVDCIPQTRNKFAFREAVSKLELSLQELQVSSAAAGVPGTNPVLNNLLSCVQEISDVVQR

PAK7 (human) = PAK7 (human) (UniProt Q9P286)
MAPKAPK5 (human) = MAPKAPK5 (human) (UniProt Q8IW41)
PIM3 (human) = PIM3 (human) (UniProt Q86V86)
JAK2 JH1 JH2 (human) = JAK2 JH1 JH2 (human) (UniProt O60674)
PRKCB2 (human) = PRKCB2 (human) (UniProt P05771)
PRKCB2 (human), sequence (P05771 whole entry, looked up): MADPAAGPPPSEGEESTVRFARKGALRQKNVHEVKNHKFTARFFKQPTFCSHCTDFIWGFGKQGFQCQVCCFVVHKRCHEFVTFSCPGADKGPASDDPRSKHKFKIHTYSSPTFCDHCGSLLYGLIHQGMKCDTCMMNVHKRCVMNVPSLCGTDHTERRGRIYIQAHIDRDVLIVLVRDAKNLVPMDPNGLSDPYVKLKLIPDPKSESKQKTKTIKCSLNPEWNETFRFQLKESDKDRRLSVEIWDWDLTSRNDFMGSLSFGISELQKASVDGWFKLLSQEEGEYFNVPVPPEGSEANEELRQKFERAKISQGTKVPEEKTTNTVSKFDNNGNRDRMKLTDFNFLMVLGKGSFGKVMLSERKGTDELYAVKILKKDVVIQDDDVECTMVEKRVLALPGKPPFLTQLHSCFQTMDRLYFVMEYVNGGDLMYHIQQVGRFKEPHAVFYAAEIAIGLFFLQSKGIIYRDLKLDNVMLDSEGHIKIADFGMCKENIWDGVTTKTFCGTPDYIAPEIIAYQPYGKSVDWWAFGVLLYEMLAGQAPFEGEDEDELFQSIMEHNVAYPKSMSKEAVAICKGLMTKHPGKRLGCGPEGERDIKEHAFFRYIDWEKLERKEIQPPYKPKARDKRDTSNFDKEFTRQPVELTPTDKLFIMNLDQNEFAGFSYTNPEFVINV

CSNK2A2 (human) = CSNK2A2 (human) (UniProt P19784)
MARK4 (human) = MARK4 (human) (UniProt Q96L34)
ABL1 (human) = ABL1 (human) (UniProt P00519)
MAPK8 (human) = MAPK8 (human) (UniProt P45983)
MAP3K11 (human) = MAP3K11 (human) (UniProt Q16584)
MAPK3 (human) = MAPK3 (human) (UniProt P27361)
MAPK3 (human), sequence (P27361 whole entry, looked up): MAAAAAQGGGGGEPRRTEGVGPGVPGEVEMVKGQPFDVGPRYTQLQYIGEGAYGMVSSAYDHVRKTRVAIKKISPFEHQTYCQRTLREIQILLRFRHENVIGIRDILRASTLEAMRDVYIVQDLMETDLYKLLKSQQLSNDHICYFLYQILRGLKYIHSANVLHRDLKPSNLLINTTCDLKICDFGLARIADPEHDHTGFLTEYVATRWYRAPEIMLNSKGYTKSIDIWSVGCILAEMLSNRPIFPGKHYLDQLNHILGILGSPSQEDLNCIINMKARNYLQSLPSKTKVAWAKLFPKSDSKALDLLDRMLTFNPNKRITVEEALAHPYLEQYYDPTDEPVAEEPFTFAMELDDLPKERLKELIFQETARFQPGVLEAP

ROCK1 (human) = ROCK1 (human) (UniProt Q13464)
PRKCD (human) = PRKCD (human) (UniProt Q05655)
[1] = target: JAK1 JH1 catalytic (human) (UniProt P23458)
EPHB1 (human) = EPHB1 (human) (UniProt P54762)
CLK4 (human) = CLK4 (human) (UniProt Q9HAZ1)
BRAF (human) = BRAF (human) (UniProt P15056)

With CCN(CC)CCNC(=O)c1c(C)[nH]c(/C=C2\C(=O)Nc3ccc(Cl)cc32)c1C the residual activity (SIK2 (human)) was 42.7%, the residual activity (STK17A (human)) was 16.1% and the residual activity (ROCK2 (human)) was 73.5%. For the same molecule, the residual activity (TSSK2 (human)) was 66.9%, the residual activity (CDK4 CCND1 (human)) was 74.1% and the residual activity (DYRK1B (human)) was 47.5%. The residual activity (CSNK1G3 (human)) was 47.7%, the residual activity (IRAK1 (human)) was 14.1% and the residual activity (PRKCH (human)) was 86.1%. The residual activity (MAPK10 (human)) was 104%, the residual activity (DYRK4 (human)) was 97.9% and the residual activity (IKBKB (human)) was 101%. It also gave a residual activity (TBK1 (human)) of 16.3%, a residual activity (PAK4 (human)) of 76.7% and a residual activity (CSNK1A1 (human)) of 75.7%. The residual activity (ROS1 (human)) was 43.9%, the residual activity (STK39 (human)) was 81.9% and the residual activity (MAPK11 (human)) was 100%. For the same molecule, the residual activity (PRKD2 (human)) was 11.9%, the residual activity (CAMK2D (human)) was 7.25% and the residual activity (CHEK1 (human)) was 15.1%. For the same molecule, the residual activity (NUAK1 (human)) was 2.06%, the residual activity (ABL2 (human)) was 46.8% and the residual activity (PAK7 (human)) was 58.9%. For the same molecule, the residual activity (MAPKAPK5 (human)) was 91.6%, the residual activity (PIM3 (human)) was 74% and the residual activity (JAK2 JH1 JH2 (human)) was 54%. For the same molecule, the residual activity (PRKCB2 (human)) was 110%, the residual activity (CSNK2A2 (human)) was 64.3% and the residual activity (MARK4 (human)) was 7.19%. It also gave a residual activity (ABL1 (human)) of 24.7%, a residual activity (MAPK8 (human)) of 97.2% and a residual activity (MAP3K11 (human)) of 21%. It also gave a residual activity (MAPK3 (human)) of 98.8%, a residual activity (ROCK1 (human)) of 89.7% and a residual activity (PRKCD (human)) of 90.4%. It also gave a residual activity [1] of 65.8%, a residual activity (EPHB1 (human)) of 60.8% and a residual activity (CLK4 (human)) of 16.8%. It also gave a residual activity (BRAF (human)) of 109%.
